Assay results taken from patent publication US20240365736A1, “COMPOSITIONS AND METHODS FOR TARGETED DEGRADATION OF PROTEINS IN A PLANT CELL” (Oerth Bio LLC, priority 2021, published 2024).

tested on: Matricaria recutita, Diplotaxis tenuifolia, Agrostis spp., Poa annua, or Arabidopsis thaliana; experiment: Plant phenotyping assay (herbicidal phenotypes, 96-well plates); format: in vivo; conditions: visual score of herbicidal phenotypes after seven days; 238, 475, 950, and 1900 g ai/ha (50-400 uM); also: key: '+++' is highly active; '++' is moderately active; '+' is weakly active; '−' is inactive
Procedure: Seeds of Matricaria recutita, Diplotaxis tenuifolia, Agrostis spp., Poa annua, or Arabidopsis thaliana were sown into 96-well plates containing 200 μl of growth media [0.5× Murashige and Skoog (MS) basal media (Sigma-Aldrich), 2.5 mM 2-(N-morpholino) ethanesulfonic acid (MES—Sigma-Aldrich), 0.7 g/L Phytagar (Invitrogen); pH 5.7]. Three to five seeds were distributed per well. Plates were placed under fifteen hours of light at 23° C., 65% humidity in a controlled environment growth chamber. After approximately three days, test compounds and controls were mixed with acetone and emulsified with an equal volume of 3% methyl ester of rapeseed oil (Mero), and applied to plants at concentrations of 238, 475, 950, and 1900 g ai/ha (50-400 uM).

How did the “Plant Activity” value turn out when `O=C(COc1ccc(Oc2cncc(C(F)(F)F)c2)cc1)NCCCOCCOCCOc1ccc2c(c1)C(=O)N(C1CCC(=O)NC1=O)C2=O` (stereo not shown) [Compound 7-A, N-(3-(2-(2-((2-(2,6-Cioxopiperidin-3-yl)-1,3-dioxoisoindolin-5-yl)oxy)ethoxy)ethoxy)propyl)-2-(4-((5-(trifluoromethyl)pyridin-3-yl)oxy)phenoxy)acetamide] was run?
Its value is “−”.

Which “Plant Activity” value does the source give for `O=C(COc1ccc(Oc2cncc(C(F)(F)F)c2)cc1)NCCCOCCOCCOCCOc1ccc2c(c1)C(=O)N(C1CCC(=O)NC1=O)C2=O` (stereo not shown) [Compound 7-B, N-(3-(2-(2-(2-((2-(2,6-dioxopiperidin-3-yl)-1,3-dioxoisoindolin-5-yl)oxy)ethoxy)ethoxy)ethoxy)propyl)-2-(4-((5-(trifluoromethyl)pyridin-3-yl)oxy)phenoxy)acetamide] here?
The value was “+”.

With `O=C(COc1ccc(Oc2cncc(C(F)(F)F)c2)cc1)NCCCOCCOCCOCCOCCOCCOc1ccc2c(c1)C(=O)N(C1CCC(=O)NC1=O)C2=O` (stereo not shown) [Compound 7-C, N-(1-((2-(2,6-dioxopiperidin-3-yl)-1,3-dioxoisoindolin-5-yl)oxy)-3,6,9,12,15-pentaoxaoctadecan-18-yl)-2-(4-((5-(trifluoromethyl)pyridin-3-yl)oxy)phenoxy)acetamide] as the compound, how does the “Plant Activity” value read?
The value was “−”.

For `O=C(COc1ccc(Oc2nc3ccc(F)cc3s2)cc1)NCCCOCCOCCOCCOCCOc1ccc2c(c1)C(=O)N(C1CCC(=O)NC1=O)C2=O` (stereo not shown) [Compound 8, N-[3-[2-[2-[2-[2-[2-(2,6-dioxo-3-piperidyl)-1,3-dioxo-isoindolin-5-yl]oxyethoxy]-ethoxy]ethoxy]ethoxy]propyl]-2-[4-[(6-fluoro-1,3-benzothiazol-2-yl)oxy]phenoxy]acetamide], which “Plant Activity” value is on record?
The value was “+”.

How did the “Plant Activity” value turn out when `O=C(COc1ccc(Oc2nc3ccc(F)cc3s2)cc1)NCCCOCCOCCOc1ccc2c(c1)C(=O)N(C1CCC(=O)NC1=O)C2=O` (stereo not shown) [Compound 8-A, N-(3-(2-(2-((2-(2,6-Dioxopiperidin-3-yl)-1,3-dioxoisoindolin-5-yl)oxy)ethoxy)ethoxy)propyl)-2-(4-((6-fluorobenzo[d]thiazol-2-yl)oxy)phenoxy)acetamide] was run?
Its value is “+”.

With `O=C(COc1ccc(Oc2nc3ccc(F)cc3s2)cc1)NCCCOCCOCCOCCOc1ccc2c(c1)C(=O)N(C1CCC(=O)NC1=O)C2=O` (stereo not shown) [Compound 8-B, N-(3-(2-(2-(2-((2-(2,6-Dioxopiperidin-3-yl)-1,3-dioxoisoindolin-5-yl)oxy)ethoxy)ethoxy)ethoxy)propyl)-2-(4-((6-fluorobenzo[d]thiazol-2-yl)oxy)phenoxy)acetamide] as the compound, how does the “Plant Activity” value read?
The value was “+”.

With `CC(Oc1ccc(Oc2nc3ccc(F)cc3s2)cc1)C(=O)Nc1ccc(OCCCOCCOCCOCCOc2ccc3c(c2)C(=O)N(C2CCC(=O)NC2=O)C3=O)cc1F` (stereo not shown) [Compound 8-C, N-(4-(3-(2-(2-(2-((2-(2,6-Dioxopiperidin-3-yl)-1,3-dioxoisoindolin-5-yl)oxy)ethoxy)ethoxy)-ethoxy)propoxy)-2-fluorophenyl)-2-(4-((6-fluorobenzo[d]thiazol-2-yl)oxy)phenoxy)propanamide] as the compound, how does the “Plant Activity” value read?
Its value is “+”.

molecular target: plant cereblon (Cereblon ligand binding domain) (Arabidopsis thaliana, UniProt F4ISN3); experiment: Ligand binding affinity by microscale thermophoresis (Monolith), labeled Cereblon ligand binding domain; conditions: MST, RED-tris-NTA His-tag labeled Cereblon ligand binding domain, 25 nM labeled protein; binding to plant cereblon; read-out: Plant CRBN Kd
Sequence (F4ISN3 1-547): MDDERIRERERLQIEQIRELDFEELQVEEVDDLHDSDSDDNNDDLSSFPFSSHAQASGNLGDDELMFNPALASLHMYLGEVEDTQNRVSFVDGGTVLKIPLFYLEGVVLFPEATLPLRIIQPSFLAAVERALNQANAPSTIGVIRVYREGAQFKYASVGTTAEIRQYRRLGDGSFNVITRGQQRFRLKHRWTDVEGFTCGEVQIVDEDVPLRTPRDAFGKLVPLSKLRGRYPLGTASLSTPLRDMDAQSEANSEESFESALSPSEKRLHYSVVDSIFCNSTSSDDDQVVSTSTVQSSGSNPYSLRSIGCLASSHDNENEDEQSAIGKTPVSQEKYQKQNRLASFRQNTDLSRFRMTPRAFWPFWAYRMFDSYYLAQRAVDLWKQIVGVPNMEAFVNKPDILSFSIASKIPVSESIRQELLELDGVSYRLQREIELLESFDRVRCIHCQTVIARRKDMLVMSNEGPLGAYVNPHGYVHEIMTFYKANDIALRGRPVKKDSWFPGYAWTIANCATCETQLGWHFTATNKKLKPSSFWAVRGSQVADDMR
Procedure: The binding affinity of the described test compounds was determined using RED-tris-NTA His-tag labeled Cereblon ligand binding domain. The labeling of the Cereblon ligand binding domain was performed according to manufacturer's protocol in assay buffer (50 nM protein: 10 nM dye, 5:1 protein to dye ratio). 200 μM compound in assay buffer (10 mM HEPES pH 7.4, 300 mM NaCl, 0.1% Pluronic-147, 10% Glycerol, 5 mM DTT) was created from 10 mM compound stock in DMSO. A 16-point serial dilution was achieved by taking 10 μL of the 200 μM first well and diluting into 10 μL of assay buffer in the second well, which was diluted in 10 μL assay buffer in the third well, and so on. DMSO content of each well matched to 2%. 10 μL of 50 nM CRBN was added to each well and mixed thoroughly by pipetting. Final assay concentration of 25 nM labeled protein and highest compound concentration of 100 μM, 1% DMSO.
Samples were incubated at room temperature in the dark for five minutes, then collected in standard Monolith capillaries. Assay was performed on the Monolith NT.155Pico using automated excitation level and medium power on M.O. Control software. Analysis of MST traces and determination of dissociation constants and was conducted in M.O. Affinity Analysis software, and the results are shown in Table 2 below.

How did the Kd turn out when `COCCOCC1COCCN1Cc1ccc(COc2cccc3c2CN([C@H]2CCC(=O)NC2=O)C3=O)cc1` (stereo partly drawn) [Example 11, (3S)-3-(4-((4-((3-((2-methoxyethoxy)methyl)morpholino)methyl)benzyl)-oxy)-1-oxoisoindolin-2-yl)piperidine-2,6-dione] was run?
The Kd was < 100 nM.

For `COCCNCC1COCCN1Cc1ccc(COc2cccc3c2CN([C@H]2CCC(=O)NC2=O)C3=O)cc1` (stereo partly drawn) [Example 12, (3S)-3-[4-[[4-[[3-[(2-Methoxyethylamino)methyl]morpholin-4-yl]methyl]-phenyl]methoxy]-1-oxo-isoindolin-2-yl]piperidine-2,6-dione], which Kd is on record?
The Kd was 100 to 1000 nM.

With `COCCNC(=O)C1CCCN(Cc2ccc(COc3cccc4c3CN(C3CCC(=O)NC3=O)C4=O)cc2)C1` [Example 14, 1-(4-(((2-((S)-2,6-dioxopiperidin-3-yl)-1-oxoisoindolin-4-yl)oxy)methyl)benzyl)-N-(2-methoxyethyl)piperidine-3-carboxamide] as the compound, how does the Kd read?
Its Kd is 100 to 1000 nM.

How did the Kd turn out when `COCCNC(=O)C1CCN(Cc2ccc(COc3cccc4c3CN([C@H]3CCC(=O)NC3=O)C4=O)cc2)CC1` [Example 16, (S)-1-(4-(((2-(2,6-dioxopiperidin-3-yl)-1-oxoisoindolin-4-yl)oxy)methyl)benzyl)-N-(2-methoxyethyl)piperidine-4-carboxamide] was run?
Its Kd is 100 to 1000 nM.

Which Kd does the source give for `COCCNC(=O)C1CCN(Cc2ccc(COc3cccc4c3CN(C3CCC(=O)NC3=O)C4=O)cc2)C1` [Example 18, 1-(4-(((2-((S)-2,6-dioxopiperidin-3-yl)-1-oxoisoindolin-4-yl)oxy)methyl)benzyl)-N-(2-methoxyethyl)pyrrolidine-3-carboxamide] here?
Its Kd is 100 to 1000 nM.

How did the Kd turn out when `COCCOCC1CCN(Cc2ccc(COc3cccc4c3CN([C@H]3CCC(=O)NC3=O)C4=O)cc2)CC1` [Example 20, (S)-3-(4-((4-((4-((2-methoxyethoxy)methyl)piperidin-1-yl)methyl)-benzyl)oxy)-1-oxoisoindolin-2-yl)piperidine-2,6-dione] was run?
Its Kd is 100 to 1000 nM.

`COCCOc1cc(OCc2ccc(CN3CCOCC3)cc2)c2c(c1)C(=O)N([C@H]1CCC(=O)NC1=O)C2` [Example 21, (3S)-3-[6-(2-methoxyethoxy)-4-[[4-(morpholinomethyl)-phenyl]methoxy]-1-oxo-isoindolin-2-yl]piperidine-2,6-dione] was tested. Which Kd did it give?
Its Kd is < 100 nM.

`COCCNc1cc(COc2cccc3c2CN([C@H]2CCC(=O)NC2=O)C3=O)ccc1CN1CCOCC1` [Example 22, (3S)-3-[4-[[3-(2-methoxyethylamino)-4-(morpholinomethyl)-phenyl]methoxy]-1-oxo-isoindolin-2-yl]piperidine-2,6-dione] was tested. Which Kd did it give?
The Kd was < 100 nM.

Which Kd does the source give for `COCCNc1cc(CN2CCOCC2)ccc1COc1cccc2c1CN([C@H]1CCC(=O)NC1=O)C2=O` [Example 23, (S)-3-(4-((2-((2-methoxyethyl)amino)-4-(morpholinomethyl)-benzyl)oxy)-1-oxoisoindolin-2-yl)piperidine-2,6-dione] here?
The Kd was 100 to 1000 nM.

Which Kd does the source give for `COCCNC(=O)c1cc(COc2cccc3c2CN([C@H]2CCC(=O)NC2=O)C3=O)ccc1CN1CCOCC1` [Example 24, (S)-5-(((2-(2,6-dioxopiperidin-3-yl)-1-oxoisoindolin-4-yl)oxy)methyl)-N-(2-methoxyethyl)-2-(morpholinomethyl)benzamide] here?
Its Kd is 100 to 1000 nM.

How did the Kd turn out when `O=C1CCC(N2C(=O)c3ccccc3C2=O)C(=O)N1` (stereo not shown) [Ref 1, Thalidomide, reference compound] was run?
Its Kd is > 1000 nM.

How did the Kd turn out when `Nc1cccc2c1C(=O)N(C1CCC(=O)NC1=O)C2=O` (stereo not shown) [Ref 2, Pomalidomide, reference compound] was run?
The Kd was > 1000 nM.
